The first series relates to Raji cells, a Burkitt's lymphoma (BL) cell line. Nature of the series: Viability of Raji cells. The class given is cell-based, human. Conditions: 100 nM, 72 h.
Regarding `COC(=O)[C@@]12OC[C@]34[C@H]([C@@H](O)[C@@H]1O)[C@@]1(C)CC(=O)C(OC(=O)[C@@H]5CCCN5C(=O)OC(C)(C)C)=C(C)[C@@H]1C[C@H]3OC(=O)[C@H](OC(=O)C=C(C)C)[C@@H]24` [Compound 11], the “inhibition of viability of Raji cells” value was “moderate inhibition”.

Regarding `COC(=O)[C@@]12OC[C@]34[C@H]([C@@H](O)[C@@H]1O)[C@@]1(C)CC(=O)C(OC(=O)CNC(=O)CN)=C(C)[C@@H]1C[C@H]3OC(=O)[C@H](OC(=O)C=C(C)C)[C@@H]24` [Compound 20], the “inhibition of viability of Raji cells” value is reported as “potent activities comparable to or higher than the parent brusatol”.

As for `COC(=O)[C@@]12OC[C@]34[C@H]([C@@H](O)[C@@H]1O)[C@@]1(C)CC(=O)C(OC(=O)C[C@H](C)N)=C(C)[C@@H]1C[C@H]3OC(=O)[C@H](OC(=O)C=C(C)C)[C@@H]24` [UPB-26, 3-(3-β-HoAla)-brusatol], the “inhibition of viability of Raji cells” value was “potent activities comparable to or higher than the parent brusatol”.

As for `COC(=O)[C@@]12OC[C@]34[C@H]([C@@H](O)[C@@H]1O)[C@@]1(C)CC(=O)C(OC(=O)CNC(=O)CNC(=O)CN)=C(C)[C@@H]1C[C@H]3OC(=O)[C@H](OC(=O)C=C(C)C)[C@@H]24` [Compound 23], the “inhibition of viability of Raji cells” value is recorded as “potent activities comparable to or higher than the parent brusatol”.

`COC(=O)[C@@]12OC[C@]34[C@H]([C@@H](O)[C@@H]1O)[C@@]1(C)CC(=O)C(OC(=O)CNC(=O)OC(C)(C)C)=C(C)[C@@H]1C[C@H]3OC(=O)[C@H](OC(=O)C=C(C)C)[C@@H]24` [UPB-15]: the “inhibition of viability of Raji cells” value was “moderate inhibition”.

`COC(=O)[C@@]12OC[C@]34[C@H]([C@@H](O)[C@@H]1O)[C@@]1(C)CC(=O)C(OC(=O)[C@H](C)NC(=O)[C@H](C)N)=C(C)[C@@H]1C[C@H]3OC(=O)[C@H](OC(=O)C=C(C)C)[C@@H]24` [Compound 22]: the “inhibition of viability of Raji cells” value is “not active”.

With `COC(=O)[C@@]12OC[C@]34[C@H]([C@@H](O)[C@@H]1O)[C@@]1(C)CC(=O)C(OC(=O)[C@H](C)NC(=O)OC(C)(C)C)=C(C)[C@@H]1C[C@H]3OC(=O)[C@H](OC(=O)C=C(C)C)[C@@H]24` [Compound 6], the “inhibition of viability of Raji cells” value is reported as “moderate inhibition”.

With `COC(=O)[C@@]12OC[C@]34[C@H]([C@@H](O)[C@@H]1O)[C@@]1(C)CC(=O)C(OC(=O)[C@@H]5CCCN5)=C(C)[C@@H]1C[C@H]3OC(=O)[C@H](OC(=O)C=C(C)C)[C@@H]24` [UPB-31], the “inhibition of viability of Raji cells” value is recorded as “potent activities comparable to or higher than the parent brusatol”.

Turning to `COC(=O)[C@@]12OC[C@]34[C@H]([C@@H](O)[C@@H]1O)[C@@]1(C)CC(=O)C(OC(=O)C[C@H](C)NS(C)(=O)=O)=C(C)[C@@H]1C[C@H]3OC(=O)[C@H](OC(=O)C=C(C)C)[C@@H]24` [Compound 29], the “inhibition of viability of Raji cells” value is listed as “lost activities”.

Regarding `COC(=O)[C@@]12OC[C@]34[C@H]([C@@H](O)[C@@H]1O)[C@@]1(C)CC(=O)C(OC(=O)C[C@H](C)NC(=O)C[C@H](C)N)=C(C)[C@@H]1C[C@H]3OC(=O)[C@H](OC(=O)C=C(C)C)[C@@H]24` [Compound 21], the “inhibition of viability of Raji cells” value is given as “potent activities comparable to or higher than the parent brusatol”.

`COC(=O)[C@@]12OC[C@]34[C@H]([C@@H](O)[C@@H]1O)[C@@]1(C)CC(=O)C(OCC(=O)NCCN)=C(C)[C@@H]1C[C@H]3OC(=O)[C@H](OC(=O)C=C(C)C)[C@@H]24` [Compound 40]: the “inhibition of viability of Raji cells” value is recorded as “moderate activity”.

In a further series the test system is MOLT-4, SU-DHL-6, SU-DHL-10, RPMI-8226 and LCL1 cells. Nature of the series: Activity on five other hematologic malignancy derived cell lines. The class given is cell-based, human. Conditions: MOLT-4, SU-DHL-6, SU-DHL-10, RPMI-8226, LCL1.
For the compound `COC(=O)[C@@]12OC[C@]34[C@H]([C@@H](O)[C@@H]1O)[C@@]1(C)CC(=O)C(OCC(=O)NCCN)=C(C)[C@@H]1C[C@H]3OC(=O)[C@H](OC(=O)C=C(C)C)[C@@H]24` [Compound 40], the “activity on five other cell lines” value is listed as “moderate to good activities”.

For the next series, the system named is NOD/SCID mice.
Assay: not given
Conditions: mouse, in vivo.
As to `COC(=O)[C@@]12OC[C@]34[C@H]([C@@H](O)[C@@H]1O)[C@@]1(C)CC(=O)C(OC(=O)C[C@H](C)N)=C(C)[C@@H]1C[C@H]3OC(=O)[C@H](OC(=O)C=C(C)C)[C@@H]24` [UPB-26, 3-(3-β-HoAla)-brusatol], the “mice survived (of 4 per group)” value was “four”.

(Values after publication PMC7704689 (Bioorganic & medicinal chemistry letters, 2020).)
